# Laboratory results published in patent US20230111310A1, “CARBOXYLIC ACID DERIVATIVE-SUBSTITUTED IMINO ARYL COMPOUND, PREPARATION METHOD THEREFOR, HERBICIDAL COMPOSITION AND USE THEREOF” (Qingdao Kingagroot Chemical Compound Co., Ltd., priority 2020, published 2023).
# Tested on: Echinochloa crusgalli
# Experiment: Weeding effect in post-emergence stage
# Assay type: in vivo
# Settings: Dose 15 g/ha; fresh weight control rate level
# Text: (§1) The activity level criteria for plant damage (i.e., growth control rate) are as follows:
# (§2) Monocotyledonous and dicotyledonous weed seeds (Descurainia sophia, Capsella bursa-pastoris, Abutilon theophrasti, Galium aparine, Stellaria media, Lithospermum arvense, rorippa indica, Alopecurus aequalis, Alopecurus japonicus, Eleusine indica, Beckmannia syzigachne, Sclerochloa dura, Conyza Canadensis, Phleum paniculatum, Veronica didyma Tenore, Bromus japonicus, Aegilops tauschii, Phalaris arundinacea, Amaranthus retroflexus, Chenopodiaceae, Commelina communis, Sonchus arvensis, Convolvulus arvensis, Cirsium setosum, Bidens tripartita L., Solanum nigrum, Acalypha australis, Digitaria sanguinalis, Echinochloa crusgalli, Setaria viridis, Setaria glauca, Leptochloa chinensis, Monochoria vaginalis, Sagittaria trifolia, Scirpus juncoides, Cyperus rotundus, Cyperus iria, Cyperus difformis, Fimbristylis, Portulaca oleracea, Xanthium sibiricum, Pharbitis nil, etc.) and major crop seeds (wheat, corn, rice, soybean, cotton, oilseed rape, millet, sorghum, potato, sesame, ricinus, etc.) were placed in plastic pots filled with soil, then covered with 0.5-2 cm of soil, allowed to grow in a good greenhouse environment. After 2 weeks of sowing, the test plants were treated in the 2-3 leaf stage. The tested compounds of the present invention were respectively dissolved in acetone, then added with Tween 80 and 1.5 liter/ha of emulsifiable concentrate of methyl oleate as synergist, diluted with a certain amount of water to obtain a solution with a certain concentration, and sprayed with a spray tower onto the plants. After the application, the plants were cultured for 3 weeks in the greenhouse, and then the experimental results of the weeding were counted. The doses of the used compounds were 500, 250, 125, 60, 30, 15, 7.5 g/ha, and the averages were obtained by repeating for three times.
row,SMILES,"Weeding effect in post-emergence stage, Echinochloa crusgalli (level)"
1,"COC(=O)C(C)O/N=C/c1cc(-n2c(=O)cc(C(F)(F)F)n(N)c2=O)c(F)cc1Cl (stereo not shown) [Control compound E, reference compound]",4 (Level 4: growth control rate is greater than or equal to 60% and less than 85%)

# Same assay, conditions: Dose 15 g/ha; level of fresh weight growth control rate
row,SMILES,"Weeding effect in post-emergence stage, Echinochloa crusgalli"
1,CCOC(=O)C(C)O/N=C/c1cc(-n2c(=O)n(C)c(=S)n(C)c2=O)c(F)cc1Cl (racemic) [Compound 2],5 (Level 5: growth control rate is above 85%)
2,COC(=O)C(C)O/N=C/c1cc(-n2c(=O)n(C)c(=S)n(C)c2=O)c(F)cc1C(F)(F)F (racemic) [Compound 85],5 (Level 5: growth control rate is above 85%)
3,CCC[C@@H](O/N=C/c1cc(-n2c(=O)n(C)c(=S)n(C)c2=O)c(F)cc1Cl)C(=O)OCC [74(R)],5 (Level 5: growth control rate is above 85%)
4,CC(O/N=C/c1cc(-n2c(=O)n(C)c(=S)n(C)c2=O)c(F)cc1Cl)C(=O)OCc1cccnc1 (stereo not shown) [Compound 59],5 (Level 5: growth control rate is above 85%)
5,CCCC(O/N=C/c1cc(-n2c(=O)n(C)c(=S)n(C)c2=O)c(F)cc1Cl)C(=O)OCC (stereo not shown) [Compound 74],5 (Level 5: growth control rate is above 85%)

# Tested on: Eleusine indica
# Experiment: Weeding effect in post-emergence stage
# Assay type: in vivo
# Settings: Dose 15 g/ha; fresh weight control rate level
# Text: as §1
# as §2, with “The doses of the used compounds were 500, 250, 125, 60, 30, 15, 7.5 g/ha, and the averages were obtained by repeating for three times.” left out
row,SMILES,"Weeding effect in post-emergence stage, Eleusine indica (level)"
1,"COC(=O)C(C)O/N=C/c1cc(-n2c(=O)cc(C(F)(F)F)n(N)c2=O)c(F)cc1Cl (stereo not shown) [Control compound E, reference compound]",3 (Level 3: growth control rate is greater than or equal to 40% and less than 60%)

# Same assay, conditions: Dose 15 g/ha; level of fresh weight growth control rate
row,SMILES,"Weeding effect in post-emergence stage, Eleusine indica"
1,CCOC(=O)C(C)O/N=C/c1cc(-n2c(=O)n(C)c(=S)n(C)c2=O)c(F)cc1Cl (racemic) [Compound 2],5 (Level 5: growth control rate is above 85%)
2,COC(=O)C(C)O/N=C/c1cc(-n2c(=O)n(C)c(=S)n(C)c2=O)c(F)cc1C(F)(F)F (racemic) [Compound 85],5 (Level 5: growth control rate is above 85%)
3,CCC[C@@H](O/N=C/c1cc(-n2c(=O)n(C)c(=S)n(C)c2=O)c(F)cc1Cl)C(=O)OCC [74(R)],5 (Level 5: growth control rate is above 85%)
4,CC(O/N=C/c1cc(-n2c(=O)n(C)c(=S)n(C)c2=O)c(F)cc1Cl)C(=O)OCc1cccnc1 (stereo not shown) [Compound 59],5 (Level 5: growth control rate is above 85%)
5,CCCC(O/N=C/c1cc(-n2c(=O)n(C)c(=S)n(C)c2=O)c(F)cc1Cl)C(=O)OCC (stereo not shown) [Compound 74],4 (Level 4: growth control rate is greater than or equal to 60% and less than 85%)

# Tested on: Alopecurus japonicus
# Experiment: Weeding effect in post-emergence stage
# Assay type: in vivo
# Settings: Dose 15 g/ha; fresh weight control rate level
# Text: as §1
# as §2, with “The doses of the used compounds were 500, 250, 125, 60, 30, 15, 7.5 g/ha, and the averages were obtained by repeating for three times.” left out
row,SMILES,"Weeding effect in post-emergence stage, Alopecurus japonicus (level)"
1,"COC(=O)C(C)O/N=C/c1cc(-n2c(=O)cc(C(F)(F)F)n(N)c2=O)c(F)cc1Cl (stereo not shown) [Control compound E, reference compound]",3 (Level 3: growth control rate is greater than or equal to 40% and less than 60%)

# Same assay, conditions: Dose 15 g/ha; level of fresh weight growth control rate
row,SMILES,"Weeding effect in post-emergence stage, Alopecurus japonicus"
1,CCOC(=O)C(C)O/N=C/c1cc(-n2c(=O)n(C)c(=S)n(C)c2=O)c(F)cc1Cl (racemic) [Compound 2],5 (Level 5: growth control rate is above 85%)

# Tested on: Abutilon theophrasti
# Experiment: Weeding effect in post-emergence stage
# Assay type: in vivo
# Settings: Dose 15 g/ha; fresh weight control rate level
# Text: as §1
# as §2, with “The doses of the used compounds were 500, 250, 125, 60, 30, 15, 7.5 g/ha, and the averages were obtained by repeating for three times.” left out
row,SMILES,"Weeding effect in post-emergence stage, Abutilon theophrasti (level)"
1,CCC(C)(O/N=C/c1cc(-n2c(=O)cc(C(F)(F)F)n(C)c2=O)c(F)cc1Cl)C(=O)OC (racemic) [Compound 471],5 (Level 5: growth control rate is above 85%)
2,COC(=O)C(C)O/N=C/c1cc(-n2c(=O)c(Br)c(C(F)(F)F)n(C)c2=O)c(F)cc1Cl (racemic) [Compound 475],5 (Level 5: growth control rate is above 85%)
3,COC(=O)C(C)O/N=C/c1cc(-n2c(=O)c(I)c(C(F)(F)F)n(C)c2=O)c(F)cc1Cl (racemic) [Compound 476],5 (Level 5: growth control rate is above 85%)
4,COC(=O)C(C)O/N=C/c1cc(-n2c(=O)c(OC)c(C(F)(F)F)n(C)c2=O)c(F)cc1Cl (racemic) [Compound 477],5 (Level 5: growth control rate is above 85%)
5,COC(=O)CC(C)O/N=C/c1cc(-n2c(=O)cc(C(F)(F)F)n(C)c2=O)c(F)cc1Cl (racemic) [Compound 481],5 (Level 5: growth control rate is above 85%)
6,CC(ON=Cc1cc(-n2c(=O)cc(C(F)(F)F)n(C)c2=O)c(F)cc1Cl)C(=O)OCCOC(=O)C(C)ON=Cc1cc(-n2c(=O)cc(C(F)(F)F)n(C)c2=O)c(F)cc1Cl [451(R)],5 (Level 5: growth control rate is above 85%)

# Same assay, conditions: Dose 15 g/ha; level of fresh weight growth control rate
row,SMILES,"Weeding effect in post-emergence stage, Abutilon theophrasti"
1,CCOC(=O)C(C)O/N=C/c1cc(-n2c(=O)n(C)c(=S)n(C)c2=O)c(F)cc1Cl (racemic) [Compound 2],5 (Level 5: growth control rate is above 85%)
2,COC(=O)C(C)O/N=C/c1cc(-n2c(=O)n(C)c(=S)n(C)c2=O)c(F)cc1C(F)(F)F (racemic) [Compound 85],5 (Level 5: growth control rate is above 85%)
3,CCC[C@@H](O/N=C/c1cc(-n2c(=O)n(C)c(=S)n(C)c2=O)c(F)cc1Cl)C(=O)OCC [74(R)],5 (Level 5: growth control rate is above 85%)
4,CC(O/N=C/c1cc(-n2c(=O)n(C)c(=S)n(C)c2=O)c(F)cc1Cl)C(=O)OCc1cccnc1 (stereo not shown) [Compound 59],5 (Level 5: growth control rate is above 85%)
5,CCCC(O/N=C/c1cc(-n2c(=O)n(C)c(=S)n(C)c2=O)c(F)cc1Cl)C(=O)OCC (stereo not shown) [Compound 74],5 (Level 5: growth control rate is above 85%)

# Tested on: Digitaria sanguinalis
# Experiment: Weeding effect in post-emergence stage
# Assay type: in vivo
# Settings: Dose 15 g/ha; fresh weight control rate level
# Text: as §1
# as §2, with “The doses of the used compounds were 500, 250, 125, 60, 30, 15, 7.5 g/ha, and the averages were obtained by repeating for three times.” left out
row,SMILES,"Weeding effect in post-emergence stage, Digitaria sanguinalis (level)"
1,"COC(=O)C(C)O/N=C/c1cc(-n2c(=O)cc(C(F)(F)F)n(N)c2=O)c(F)cc1Cl (stereo not shown) [Control compound E, reference compound]",3 (Level 3: growth control rate is greater than or equal to 40% and less than 60%)

# Same assay, conditions: Dose 15 g/ha; level of fresh weight growth control rate
row,SMILES,"Weeding effect in post-emergence stage, Digitaria sanguinalis"
1,CCOC(=O)C(C)O/N=C/c1cc(-n2c(=O)n(C)c(=S)n(C)c2=O)c(F)cc1Cl (racemic) [Compound 2],5 (Level 5: growth control rate is above 85%)
2,COC(=O)C(C)O/N=C/c1cc(-n2c(=O)n(C)c(=S)n(C)c2=O)c(F)cc1C(F)(F)F (racemic) [Compound 85],5 (Level 5: growth control rate is above 85%)
3,CCC[C@@H](O/N=C/c1cc(-n2c(=O)n(C)c(=S)n(C)c2=O)c(F)cc1Cl)C(=O)OCC [74(R)],4 (Level 4: growth control rate is greater than or equal to 60% and less than 85%)
4,CC(O/N=C/c1cc(-n2c(=O)n(C)c(=S)n(C)c2=O)c(F)cc1Cl)C(=O)OCc1cccnc1 (stereo not shown) [Compound 59],5 (Level 5: growth control rate is above 85%)
5,CCCC(O/N=C/c1cc(-n2c(=O)n(C)c(=S)n(C)c2=O)c(F)cc1Cl)C(=O)OCC (stereo not shown) [Compound 74],4 (Level 4: growth control rate is greater than or equal to 60% and less than 85%)

# Tested on: Setaria viridis
# Experiment: Weeding effect in post-emergence stage
# Assay type: in vivo
# Settings: Dose 15 g/ha; fresh weight control rate level
# Text: as §1
# as §2, with “The doses of the used compounds were 500, 250, 125, 60, 30, 15, 7.5 g/ha, and the averages were obtained by repeating for three times.” left out
row,SMILES,"Weeding effect in post-emergence stage, Setaria viridis (level)"
1,"COC(=O)C(C)O/N=C/c1cc(-n2c(=O)cc(C(F)(F)F)n(N)c2=O)c(F)cc1Cl (stereo not shown) [Control compound E, reference compound]",4 (Level 4: growth control rate is greater than or equal to 60% and less than 85%)

# Same assay, conditions: Dose 15 g/ha; level of fresh weight growth control rate
row,SMILES,"Weeding effect in post-emergence stage, Setaria viridis"
1,CCOC(=O)C(C)O/N=C/c1cc(-n2c(=O)n(C)c(=S)n(C)c2=O)c(F)cc1Cl (racemic) [Compound 2],5 (Level 5: growth control rate is above 85%)
2,COC(=O)C(C)O/N=C/c1cc(-n2c(=O)n(C)c(=S)n(C)c2=O)c(F)cc1C(F)(F)F (racemic) [Compound 85],5 (Level 5: growth control rate is above 85%)
3,CCC[C@@H](O/N=C/c1cc(-n2c(=O)n(C)c(=S)n(C)c2=O)c(F)cc1Cl)C(=O)OCC [74(R)],5 (Level 5: growth control rate is above 85%)
4,CC(O/N=C/c1cc(-n2c(=O)n(C)c(=S)n(C)c2=O)c(F)cc1Cl)C(=O)OCc1cccnc1 (stereo not shown) [Compound 59],5 (Level 5: growth control rate is above 85%)
5,CCCC(O/N=C/c1cc(-n2c(=O)n(C)c(=S)n(C)c2=O)c(F)cc1Cl)C(=O)OCC (stereo not shown) [Compound 74],5 (Level 5: growth control rate is above 85%)
